Measurements reported in patent US20240116988A1, “ANTI-ROR1 MACROCYCLIC PEPTIDES AND COMPOSITIONS” (BRISTOL-MYERS SQUIBB COMPANY, priority 2022, published 2024).
Positions of bridges follow the written chain, without caps; N, C: chain ends. Non-standard residues stand in square brackets, D forms with d. Residues, ends and D or L forms follow the SMILES beside them. NMeF = CN[C@@H](Cc1ccccc1)C(=O)O; NMeL = CN[C@@H](CC(C)C)C(=O)O; NMeA = CN[C@@H](C)C(=O)O; Nle = CCCC[C@H](N)C(=O)O

molecular target: T1, human ROR1 (Homo sapiens, UniProt Q01973); assay: ROR1 high content cell-based binding assay; conditions: read-out: ROR1 Binding 293T Human HC Cell Based Assay IC50
T1 construct: host or cells: HEK 293T cells, Tet-on system induced with doxycycline
T1 sequence (Q01973 30-937): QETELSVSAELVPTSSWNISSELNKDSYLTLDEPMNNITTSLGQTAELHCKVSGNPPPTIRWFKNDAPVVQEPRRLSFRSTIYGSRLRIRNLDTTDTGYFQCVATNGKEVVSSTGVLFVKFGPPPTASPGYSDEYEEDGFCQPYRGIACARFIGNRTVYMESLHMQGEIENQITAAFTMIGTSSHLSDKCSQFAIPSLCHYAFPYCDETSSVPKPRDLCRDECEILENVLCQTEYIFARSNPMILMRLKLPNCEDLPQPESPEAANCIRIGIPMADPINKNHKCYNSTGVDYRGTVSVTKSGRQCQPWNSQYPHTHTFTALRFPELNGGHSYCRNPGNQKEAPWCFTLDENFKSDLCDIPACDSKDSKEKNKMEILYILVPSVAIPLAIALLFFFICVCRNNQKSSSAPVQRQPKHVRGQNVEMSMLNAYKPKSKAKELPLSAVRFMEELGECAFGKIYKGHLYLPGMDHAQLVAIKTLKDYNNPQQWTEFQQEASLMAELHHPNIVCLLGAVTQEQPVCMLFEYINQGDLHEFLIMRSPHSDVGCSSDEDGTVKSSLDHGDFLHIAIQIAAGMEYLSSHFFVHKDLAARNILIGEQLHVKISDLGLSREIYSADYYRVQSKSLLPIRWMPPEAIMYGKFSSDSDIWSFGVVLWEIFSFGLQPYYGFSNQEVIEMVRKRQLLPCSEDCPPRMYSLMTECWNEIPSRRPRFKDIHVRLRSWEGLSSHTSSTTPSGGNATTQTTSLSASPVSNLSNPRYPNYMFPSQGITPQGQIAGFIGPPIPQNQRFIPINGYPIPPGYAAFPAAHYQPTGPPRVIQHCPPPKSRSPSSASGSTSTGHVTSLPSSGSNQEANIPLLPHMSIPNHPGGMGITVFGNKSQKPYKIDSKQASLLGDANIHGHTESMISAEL
Procedure, shortened: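 Doxycycline-induced 293T cells expressing human ROR1, seeded overnight, were treated with compound plus 5-FAM-labeled ROR1-binding probe peptide (30 nM final) for 1 h at 37 °C. After washing and formaldehyde/Hoechst fixation, cell-bound probe fluorescence was read by high-content imaging.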

Structure (SMILES) | IC50
CC(C)C[C@@H]1NC(=O)[C@H](Cc2ccc(O)cc2)NC(=O)[C@H](CCC(N)=O)NC(=O)CSC[C@@H](C(=O)NCC(N)=O)NC(=O)[C@H](CC(C)C)NC(=O)[C@H](Cc2ccccc2)N(C)C(=O)[C@H](Cc2ccc(O)cc2)NC(=O)[C@H](Cc2c[nH]c3ccccc23)NC(=O)CNC(=O)[C@H](CO)NC(=O)[C@H](Cc2ccc(O)cc2)NC(=O)[C@H](C(C)C)NC1=O [Example 1088] ({CH2CO}-QYLVYSGWY[NMeF]LCG-NH2; thioether N-12) | 83 nM
CC(C)C[C@@H]1NC(=O)CNC(=O)[C@H](Cc2ccccc2)NC(=O)CSC[C@@H](C(=O)NCC(N)=O)NC(=O)[C@H](CC(C)C)NC(=O)[C@H](Cc2ccccc2)N(C)C(=O)[C@H](Cc2ccc(O)cc2)NC(=O)[C@H](Cc2c[nH]c3ccccc23)NC(=O)CNC(=O)[C@H](CO)NC(=O)[C@H](Cc2ccc(O)cc2)NC(=O)[C@H](C(C)C)NC1=O [Example 1068] ({CH2CO}-FGLVYSGWY[NMeF]LCG-NH2; thioether N-12) | 453 nM
CN1C(=O)CNC(=O)[C@H](Cc2ccc(O)cc2)NC(=O)[C@H](Cc2ccccc2)NC(=O)CSC[C@@H](C(N)=O)NC(=O)[C@H](Cc2c[nH]c3ccccc23)NC(=O)[C@H](Cc2ccc(O)cc2)NC(=O)[C@H](Cc2ccccc2)NC(=O)[C@H](CC(N)=O)NC(=O)[C@@H]1Cc1ccccc1 [Example 1103] ({CH2CO}-FYG[NMeF]NFYWC-NH2; thioether N-9) | 923 nM
CC(C)C[C@@H]1NC(=O)[C@H](CCCNC(=N)N)NC(=O)[C@H](Cc2ccccc2)NC(=O)CSC[C@@H](C(=O)NCC(N)=O)NC(=O)[C@H](CC(C)C)NC(=O)[C@H](Cc2ccccc2)N(C)C(=O)[C@H](Cc2ccc(O)cc2)NC(=O)[C@H](Cc2c[nH]c3ccccc23)NC(=O)CNC(=O)[C@H](CO)NC(=O)[C@H](Cc2ccc(O)cc2)NC(=O)[C@H](C(C)C)NC1=O [Example 1051] ({CH2CO}-FRLVYSGWY[NMeF]LCG-NH2; thioether N-12) | 172 nM
CCCC[C@@H]1NC(=O)[C@H](Cc2ccc(O)cc2)NC(=O)[C@H](Cc2c[nH]c3ccccc23)NC(=O)[C@H](C)N(C)C(=O)[C@H](CCCNC(=N)N)NC(=O)[C@H](CO)NC(=O)[C@H](CO)NC(=O)[C@H](Cc2c[nH]c3ccccc23)NC(=O)[C@H](Cc2ccc(O)cc2)NC(=O)[C@H](Cc2ccccc2)NC(=O)CSC[C@@H](C(N)=O)NC(=O)[C@H](CC(C)C)N(C)C1=O [Example 1096] ({CH2CO}-FYWSSR[NMeA]WY[Nle][NMeL]C-NH2; thioether N-12) | 4 nM
CC(C)C[C@@H]1NC(=O)CNC(=O)[C@H](Cc2ccccc2)N(C)C(=O)CNC(=O)[C@H](Cc2ccc(O)cc2)NC(=O)[C@H](Cc2ccccc2)NC(=O)CSC[C@@H](C(N)=O)NC(=O)[C@H](Cc2c[nH]c3ccccc23)NC(=O)[C@H](Cc2ccc(O)cc2)NC1=O [Example 1105] ({CH2CO}-FYG[NMeF]GLYWC-NH2; thioether N-9) | 675 nM
CC(C)C[C@@H]1NC(=O)[C@H](Cc2ccccc2)NC(=O)CSC[C@@H](C(=O)NCC(N)=O)NC(=O)[C@H](C)NC(=O)[C@H](Cc2c[nH]c3ccccc23)NC(=O)[C@H](Cc2ccc(O)cc2)NC(=O)[C@H](Cc2c[nH]c3ccccc23)NC(=O)[C@H](Cc2c[nH]c3ccccc23)NC(=O)[C@H](CCC(=O)O)NC(=O)[C@H](Cc2ccc(O)cc2)NC(=O)[C@H](C(C)C)NC(=O)[C@H](Cc2c[nH]c3ccccc23)NC1=O [Example 1013] ({CH2CO}-FLWVYEWWYWACG-NH2; thioether N-12) | 637 nM
CC(C)C[C@@H]1NC(=O)[C@H](Cc2ccc(O)cc2)NC(=O)[C@H](Cc2ccccc2)NC(=O)CSC[C@@H](C(=O)NCC(N)=O)NC(=O)[C@H](CC(C)C)NC(=O)[C@H](Cc2ccccc2)N(C)C(=O)[C@H](Cc2ccc(O)cc2)NC(=O)[C@H](Cc2c[nH]c3ccccc23)NC(=O)CNC(=O)[C@H](Cc2c[nH]c3ccccc23)NC(=O)[C@H](CCCNC(=N)N)NC(=O)[C@H](C(C)C)NC1=O [Example 1054] ({CH2CO}-FYLVRWGWY[NMeF]LCG-NH2; thioether N-12) | 35 nM
